Experimental data taken from patent US20090048301A1 (IMCLONE SYSTEMS INCORPORATED, priority 2003, published 2009).
Where two headings read alike, the source gives them in different places.

Experiments:
[1] = test system: A431, human epidermoid carcinoma cells; test: Cell cycle analysis (FACS), mitotic arrest in G2/M; type: cell-based; conditions: read-out: FACS Assay: concentration required to achieve inhibition in FACS assay
Experimental: The cell cycle analysis was performed as follows. Cancer cells (A431, human epidennoid carcinoma cells) were maintained in culture in D-MEM media with 10% FBS and 1 mg/ml glutamate. Prior to experiment, cells were plated onto 6-well plates for a final density of 500,000 cells/well at the time of treatment. Cells were treated with the compounds of the invention at a concentration of about 0.01 to 1 μM final concentrations (final 0.1% DMSO) for 24 hours, then trypsinized, collected, rinsed in PBS (phosphate buffered saline), and fixed in 70% cold ethanol overnight at 4° C. The cells were then rinsed with PBS, resuspended in PBS with 0.2% Tween, RNAse was added (final 1 μg/ml), cells were incubated at 37° C. for 15 min, followed by addition of Propidium Iodide (final 50 μg/ml), and a 30 minute incubation at room temperature. DNA ploidy was analyzed using flow cytometers (Epics Excel, Beckman-Coulter, or Guava PCA-96, Guava Technologies) and mitotic arrest characterized by massive accumulation of cells in the G2/M phase of cell cycle.
Cancer cells (A431, human epidermoid cells) were maintained in culture in D-MEM media with 10% FBS and 1 mg/ml glutamate. Prior to experiment, cells are plated onto 6-well plates for a final density of 500,000 cells/well at the time of treatment. Cells were treated with compounds at 0.01-1 μM final concentrations (final […] DMS 0) for 24 hours, then trypsinized, collected, rinsed in PBS (phosphate buffered saline), and fixed in 70% cold ethanol overnight at 4° C. Cells were then rinsed with PBS, resuspended in PBS with 0.2% Tween, RNAse was added (final 1 μg/ml), cells were incubated at 37° C. for 15 min, followed by addition of Propidium Iodide (final 50 μg/ml), and a 30 minute incubation at room temperature. DNA ploidy was analyzed using cell sorters (Epics Excel, Beckman-Coulter, or Guava PCA-96, Guava Technologies) and mitotic arrest characterized by massive accumulation of cells in the G2/M phase of cell cycle.

[2] = test system: bovine tubulin; test: In vitro tubulin polymerization assay (turbidity at 340 nm); type: biochemical; conditions: 10 μM compound, 30 minute data point, vs 1% DMSO control
How it was run: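 Bovine tubulin (97%, <3% MAPs) at 3 mg/ml final in G-PEM pH 7 with 1 mM GTP and 5% glycerol, added cold to compound wells at 37° C (1% DMSO final). A340 read each minute for 30 min; percent inhibition from 30-min point versus DMSO control.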

SMILES | minimal effective concentration ([1]; Homo sapiens, A-431, 24 h) | Tubulin Assay: percent inhibition at 10 μM based on 30 minute data [2] | minimal effective concentration ([1]; 24 hours)
c1ccc(-c2nnc(Nc3ccc4c(c3)OCO4)[nH]2)c(NCc2ccc3[nH]ncc3c2)c1 [Compound 119, Benzo[1,3]dioxol-5-yl-(5-{2-[(1H-indazol-5-ylmethyl)-amino]-phenyl}-4H-[1,2,4]triazol-3-yl)-amine] | 1 µM | 76% | 
c1ccc(-c2nnc(Nc3ccc4c(c3)OCCO4)[nH]2)c(NCc2ccncc2)c1 [Compound 122, (2,3-Dihydro-benzo[1,4]dioxin-6-yl)-(5-{2-[(pyridin-4-ylmethyl)-amino]-phenyl}-4H-[1,2,4]triazol-3-yl)-amine] | 1 µM | 84% | 
COc1cccc(Nc2nnc(-c3ccccc3NCc3ccc4[nH]ncc4c3)[nH]2)c1 [Compound 123, (5-{2-[(1H-Indazol-5-ylmethyl)-amino]-phenyl}-4H-[1,2,4]triazol-3-yl)-(3-methoxy-phenyl)-amine] | 1 µM | 75% | 
FC(F)(F)c1ccc(-c2nnc(Nc3ccc4c(c3)OCO4)[nH]2)c(NCc2ccncc2)c1 [Compound 124, Benzo[1,3]dioxol-5-yl-(5-{2-[(pyridin-4-ylmethyl)-amino]-4-trifluoromethyl-phenyl}-4H-[1,2,4]triazol-3-yl)-amine] | 0.1 µM | 93% | 
O=S(=O)(Nc1ccccc1-c1nnc(Nc2ccc3c(c2)OCCO3)[nH]1)c1cccc(OC(F)(F)F)c1 [Compound 127, N-{2-[5-(2,3-Dihydro-benzo[1,4]dioxin-6-ylamino)-4H-[1,2,4]triazol-3-yl]-phenyl}-3-trifluoromethoxy-benzenesulfonamide] | 10 µM | 61% | 
CS(=O)(=O)c1ccc(-c2nnc(-c3ccccc3NCc3ccc4c(c3)OCO4)[nH]2)cc1 [Compound 133, Benzo[1,3]dioxol-5-ylmethyl-{2-[5-(4-methanesulfonyl-phenyl)-4H-[1,2,4]triazol-3-yl]-phenyl}-amine] | 1 µM | 86% | 
COc1cccc(-c2nnc(-c3ccccc3NCc3ccc4[nH]ncc4c3)[nH]2)c1 [Compound 136, (1H-Indazol-5-ylmethyl)-{2-[5-(3-methoxy-phenyl)-4H-[1,2,4]triazol-3-yl]-phenyl}-amine] | 10 µM | 32% | 
FC(F)(F)Oc1cccc(-c2nnc(-c3ccccc3NCc3ccc4c(c3)OCO4)[nH]2)c1 [Compound 141, Benzo[1,3]dioxol-5-ylmethyl-{2-[5-(3-trifluoromethoxy-phenyl)-4H-[1,2,4]triazol-3-yl]-phenyl}-amine] | 0.1 µM | 88% | 
Brc1ccc(-c2nnc(-c3ccccc3NCc3ccc4[nH]ncc4c3)[nH]2)cc1 [Compound 145, {2-[5-(4-Bromo-phenyl)-4H-[1,2,4]triazol-3-yl]-phenyl}-(1H-indazol-5-ylmethyl)-amine] | 0.1 µM | 58% | 
COc1cccc(-c2nnc(-c3ccccc3NCc3ccc4c(c3)OCO4)[nH]2)c1 [Compound 148, Benzo[1,3]dioxol-5-ylmethyl-{2-[5-(3-methoxy-phenyl)-4H-[1,2,4]triazol-3-yl]-phenyl}-amine] | 10 µM | 71% | 
Fc1ccc(CNc2ncccc2-c2nnc(Nc3ccc4c(c3)OCO4)o2)cc1F [Compound 155, {3-[5-(Benzo[1,3]dioxol-5-ylamino)-[1,3,4]oxadiazol-2-yl]-pyridin-2-yl}-(3,4-difluoro-benzyl)-amine] | 1 µM | 91% | 
COc1cccc(CNc2ncccc2-c2nnc(Nc3ccc4c(c3)OCO4)o2)c1 [Compound 156, {3-[5-(Benzo[1,3]dioxol-5-ylamino)-[1,3,4]oxadiazol-2-yl]-pyridin-2-yl}-(3-methoxy-benzyl)-amine] | 1 µM | 64% | 
COc1ccc(CNc2ncccc2-c2nnc(Nc3ccc4c(c3)OCO4)o2)cc1 [Compound 157, {3-[5-(Benzo[1,3]dioxol-5-ylamino)-[1,3,4]oxadiazol-2-yl]-pyridin-2-yl}-(4-methoxy-benzyl)-amine] | 1 µM | 92% | 
COc1cccc(CNc2ncccc2-c2nnc(Nc3ccc4c(c3)OCCO4)o2)c1 [Compound 159, {3-[5-(2,3-Dihydro-benzo[1,4]dioxin-6-ylamino)-[1,3,4]oxadiazol-2-yl]-pyridin-2-yl}-(3-methoxy-benzyl)-amine] | 0.075 µM | 87% | 
COc1ccc(CNc2ncccc2-c2nnc(Nc3ccc4c(c3)OCCO4)o2)cc1 [Compound 160, {3-[5-(2,3-Dihydro-benzo[1,4]dioxin-6-ylamino)-[1,3,4]oxadiazol-2-yl]-pyridin-2-yl}-(4-methoxy-benzyl)-amine] | 0.1 µM | 89% | 
Fc1ccc(CNc2ncccc2-c2nnc(Nc3ccc4c(c3)OCCO4)o2)cc1F [Compound 161, (3,4-Difluoro-benzyl)-{3-[5-(2,3-dihydro-benzo[1,4]dioxin-6-ylamino)-[1,3,4]oxadiazol-2-yl]-pyridin-2-yl}-amine] | 0.1 µM | 82% | 
c1cncc(CNc2ncccc2-c2nnc(Nc3ccc4c(c3)OCCO4)o2)c1 [Compound 162, {3-[5-(2,3-Dihydro-benzo[1,4]dioxin-6-ylamino)-[1,3,4]oxadiazol-2-yl]-pyridin-2-yl}-pyridin-3-ylmethyl-amine] | 0.01 µM | 86% | 
c1coc(CNc2ncccc2-c2nnc(Nc3ccc4c(c3)OCO4)o2)c1 [Compound 163, {3-[5-(Benzo[1,3]dioxol-5-ylamino)-[1,3,4]oxadiazol-2-yl]-pyridin-2-yl}-furan-2-ylmethyl-amine] | 1 µM | 90% | 
c1coc(CNc2ncccc2-c2nnc(Nc3ccc4c(c3)OCCO4)o2)c1 [Compound 164, {3-[5-(2,3-Dihydro-benzo[1,4]dioxin-6-ylamino)-[1,3,4]oxadiazol-2-yl]-pyridin-2-yl}-furan-2-ylmethyl-amine] |  | 73% | 0.1 µM
COc1ccc(CNc2ncccc2-c2nnc(Nc3ccc4c(c3)OCCO4)o2)cc1OC [Compound 165, {3-[5-(2,3-Dihydro-benzo[1,4]dioxin-6-ylamino)-[1,3,4]oxadiazol-2-yl]-pyridin-2-yl}-(3,4-dimethoxy-benzyl)-amine] | 0.1 µM | 86% | 
COc1ccc(CNc2ncccc2-c2nnc(Nc3ccc(OC)c(OC)c3)o2)cc1OC [Compound 166, (3,4-Dimethoxy-benzyl)-{3-[5-(3,4-dimethoxy-phenylamino)-[1,3,4]oxadiazol-2-yl]-pyridin-2-yl}-amine] | 1 µM | 53% | 
Fc1cccc(CNc2ncccc2-c2nnc(Nc3ccc4c(c3)OCCO4)o2)c1 [Compound 168, {3-[5-(2,3-Dihydro-benzo[1,4]dioxin-6-ylamino)-[1,3,4]oxadiazol-2-yl]-pyridin-2-yl}-(3-fluoro-benzyl)-amine] | 0.1 µM | 95% | 
Fc1ccc(CNc2ncccc2-c2nnc(Nc3ccc4c(c3)OCCO4)o2)cc1 [Compound 169, {3-[5-(2,3-Dihydro-benzo[1,4]dioxin-6-ylamino)-[1,3,4]oxadiazol-2-yl]-pyridin-2-yl}-(4-fluoro-benzyl)-amine] | 0.1 µM | 82% | 
c1cnc(N2CCOCC2)c(-c2nnc(Nc3ccc4c(c3)OCCO4)o2)c1 [Compound 170, (2,3-Dihydro-benzo[1,4]dioxin-6-yl)-[5-(2-morpholin-4-yl-pyridin-3-yl)-[1,3,4]oxadiazol-2-yl]-amine] | 0.1 µM | 55% | 
